Results published in patent US20110288136A1, “FLAVIVIRUS INHIBITION BY SULTAMS AND RELATED COMPOUNDS” (Oregon Health & Science University, priority 2006, published 2011).
“And” between values parts separate entries of the source, which are not always exact repeats. Equal entries are not always repeated.

Legend:
WNV [1] = test: virus yield reduction assay, WNV; type: cell-based, West Nile virus; details: for EC50: West Nile virus, Vero, read-out: WNV EC50
Description: (§1) This example describes an assay used to evaluate inhibitor antiviral activity. Inhibitor screening, virus yield reduction, and cytotoxicity assays all employed Vero cells and media containing 2% FCS. Compound libraries were assayed for WNV antiviral activity by screening for protection of infected Vero cells from WNV cytopathic effects (CPE). To do so, 10^4 Vero cells in 96 well plate wells were pretreated with a final concentration of 10 μg/mL drug in a total volume of 1 μL DMSO, infected with WNV at a multiplicity of infection (MOI) of 0.2, and screened for protection from CPE for 3-5 d post-infection (PI). Virus yield reduction assays were modified from previous protocols (Hirsch, A., Medigeshi, G., Meyers, H., DeFilippis, V., Fruh, K., Briese, T., Lipkin, W. I., and Nelson, J. (2005). The Src family kinase c-Yes is required for maturation of West Nile virus particles. J. Virol. 79, 11943-11951). Briefly, 10^4 Vero cells in 96 well plate wells were treated with compound dilutions in 1 μL DMSO, and infected with WNV at an MOI of 1-3. At 20-24 h PI, virus-containing media samples were titered by limiting dilution on fresh Vero cells. After 5 d, media were removed, and surviving cells were stained with 0.0375% crystal violet in ethanol. For cytotoxicity assays, 10^4 Vero cells per 96 well plate well were treated with compound dilutions, grown for 48 h, and subjected to colorimetric assays for dehydrogenase levels in metabolically active cells using MTS (3-[4,5-dimethylthiazol-2-yl)-5-[3-carboxymethyoxy phenyl]-2-[4-sulfophenyl]-2H-tetrazolium]; Promega) substrate. MTS cytotoxicity assay results were confirmed microscopically by scoring for Trypan Blue (0.2%) exclusion.
(§2) Several antiviral sultams were evaluated in using these methods. The results, including CC50 and EC50 values for WNV and JEV, were determined by MTS cytotoxicity assays and virus yield reduction assays and are recorded in Table 2.

JEV = test: virus yield reduction assay, JEV; type: cell-based; details: Japanese encephalitis virus, Vero, read-out: JEV EC50
Description: as §1, §2

[2] = MTS cytotoxicity assay (48 h); type: cell-based; details: African green monkey; MTS, Vero cells, 48 h
Description: as §1, §2

Vero cells [3] = test: MTS cytotoxicity assay (48 h); type: cell-based; details: highest drug concentrations employed
Description: as §1, §2

WNV E [4] = test: WNV E protein expression by immunofluorescence; type: cell-based, West Nile virus; details: 10 μg/mL, Vero cells, MOI 3, 24 h PI
Description: E protein expression was assayed by immunofluorescence and immunoblotting. Immunofluorescent and immunoblot detection of WNV E employed a commercially available anti-E monoclonal antibody (Chemicon Mab 8150). For immunofluorescence, Vero cells in DMEM, plus penicillin, streptomycin, and 2% FCS were mock-treated with DMSO, or treated with 10 μg/mL of inhibitor compound in DMSO, and infected with WNV at an MOI of 3. At 24 h PI, cells were processed for immunofluorescent detection of WNV E using a standard protocol at room temperature (Arvidson, B., Seeds, J., Webb, M., Finlay, L., and Barklis, E. (2003). Analysis of the retrovirus capsid interdomain linker region. Virology 308, 166-177). Briefly, washed cells were fixed 20 min in 3.7% formaldehyde in phosphate-buffered saline (PBS; 9.5 mM sodium potassium phosphate [pH 7.4], 137 mM NaCl, 2.7 mM KCl), washed, permeabilized 10 min in 0.2% Triton X-100 in PBS, washed, incubated 1 h with primary antibody diluted in DMEM plus 10% heat inactivated FCS (DMEM+FCS), washed, incubated 1 h with 1:1000 diluted Alexafluor594-conjugated goat anti-mouse secondary antibody (Molecular Probes; Invitrogen) in DMEM+FCS, washed, and mounted with PBS in 50% glycerol. Images were collected electronically on a Zeiss fluorescence microscope.
A handful of E protein-positive cells was observed over the faint background staining of the majority of cells.

WNV E [5] = test: WNV E protein expression by immunoblot; type: cell-based, West Nile virus; details: 5 μg/mL, Vero cells, MOI 5, 18 h PI
Description: For immunoblot detection of WNV E Vero cells on […] in 1 mL media were mock-treated with 5 μL DMSO or treated with 5 μL 1 mg/mL inhibitor compound in DMSO (final concentration 5 μg/mL inhibitor compound), and infected with WNV at an MOI of 5. At 18 h PI, media were removed, cells were collected in IPB (10 mM Tris-hydrochloride [pH 7.5], 150 mM NaCl, 1 mM ethylenediaminetetraacetic acid (EDTA), 0.1% sodium dodecyl sulfate [SDS], 0.5% sodium deoxycholate, 1% Triton X-100, 0.02% sodium azide), mixed with 1 volume of 2 x sample buffer (12.5 mM Tris-hydrochloride [pH 6.8], 2% SDS, 20% glycerol, 0.25% bromphenol blue) plus 0.1 volume of β-mercaptoethanol (β-Me). Samples were frozen at −20° C., heated 5 min to 90° C. and subjected to SDS-polyacrylamide gel electrophoresis (SDS-PAGE). After electrophoresis and electroblotting onto nitrocellulose filters, WNV E proteins were detected using a dilution of Mab 8150 as the primary antibody, an alkaline phosphatase-conjugated goat anti-mouse IgG secondary antibody (Promega), and a BCIP (5-bromo-4-chloro-3-indolyl phosphate) plus NBT (nitroblue tetrazolium)-mediated color reaction for visualization.
Immunoblotting was performed using a similar infection regime as in the immunofluorescence protocol. […] The WNV envelope protein was detected as a band at approximately 55 kDa in cells treated with DMSO, or with ineffective candidate inhibitors.

WNV NY99 = test: RT real-time PCR quantitation of WNV RNA; type: cell-based, West Nile virus; details: 5 μg/ml, MOI 5, 18 h PI
Description: Cells were DMSO mock-treated or treated with 5 μg/ml TYT-1, and then mock-infected or infected with WNV NY99 at an MOI of 5. At 18 h PI, RNAs were isolated from cells and subjected to reverse transcription (RT) real-time PCR quantitation of WNV RNA following the protocol of Briese et al. (Briese, T., Glass, W., and Lipkin, W. I. (2000). Detection of West Nile virus sequences in cerebrospinal fluid. Lancet 355, 1614-1615). […] Thus, inhibition of WNV NY99 replication by TYT-1 is accompanied by a reduction in viral protein and viral RNA expression levels.

Vero cells [6] = test: MTS toxicity screening assay (3 d); type: cell-based; details: 10 μg/ml, subconfluent Vero cells
Description: TYT-1 was screened for toxicities using a colorimetric cell proliferation assay which employs MTS substrate to measure dehydrogenase activity in metabolically active cells (Barltrop, J. et al. (1991) 5-(3-carboxymethoxyphenyl)-2-(4,5-dimethylthiazoly)-3-(4-sulfophenyl)tetrazolium, inner salt (MTS) and related analogs of 3-(4,5-dimethyl thiazolyl)-2,5-diphenyltetrazolium bromide (mTT) reducing to purple water-soluble formazans as cell-viability indicators. Bioorg. & Med. Chem. Lett. 1, 611).
In this assay, subconfluent Vero cells were untreated, or treated 3 d with 10 μg/ml compound, and then subjected to MTS dehydrogenase assays, in which 490 nm absorbance values are proportional to cell viability signals. Results were plotted as the percentage of all treated compounds versus the percentage of the assay signal for untreated samples. Thus, nontoxic compounds give a signal approximately 100% that of the untreated signal.

[7] = test system: West Nile virus (WNV; strain NY99); test: protection of mice from WNV lethality; type: in vivo, C57BL/6N mice; details: 400 pfu WNV s.c.
Description: This example describes the protective effect exerted by examples of the disclosed compounds against challenge with flaviviruses. […] With reference to FIG. 2A, on day 0, two groups of five C57BL/6N mice each were injected subcutaneously with 400 plaque forming units (pfu) of West Nile virus (WNV; strain NY99). Four hours prior to virus infection, and at two and four days post-infection (PI), one set of mice was injected i.p. with 0.02 ml DMSO per mouse (mock), while the other set was injected with 10 mg/kg TYT-1 in 0.02 ml DMSO. Survival was tracked for 21 days PI, and results are plotted as overall percentage survival for each group, versus the number of days PI. […] With reference to FIG. 2B, two groups of C57BL/6N mice were infected on day 0 with WNV as described above. Prior to infection, the 15 mice in the mock group were injected subcutaneously with 0.025 ml of DMSO, while the 10 mice in the experimental group were injected with 10 mg/kg TYT-1 in DMSO. Mice subsequently were injected i.p. with DMSO or TYT-1 at days 2, 4, 6, 8; and survival was tracked as above. […] The combined results of these two trial yielded a survival rate of 6/20 for mock treated mice and 11/15 for TYT-1 treated mice.

WNV [8] = test: protection of infected Vero cells from WNV cytopathic effects; type: cell-based, West Nile virus; details: WNV 0.2 MOI
Description: as §1, with “For cytotoxicity assays, 10^4 Vero cells per 96 well plate well were treated with compound dilutions, grown for 48 h, and subjected to colorimetric assays for dehydrogenase levels in metabolically active cells using MTS (3-[4,5-dimethylthiazol-2-yl)-5-[3-carboxymethyoxy phenyl]-2-[4-sulfophenyl]-2H-tetrazolium]; Promega) substrate. MTS cytotoxicity assay results were confirmed microscopically by scoring for Trypan Blue (0.2%) exclusion.” left out

Row | Compound | EC50 (WNV [1]) | EC50 (JEV) | CC50 at 48 h [2] | 50% cytotoxicity (Vero cells [3]) | also measured
1 | O=S1(=O)CS/C(=N\C(=S)N(c2ccccc2)c2ccccc2)N1c1ccccc1 [TYT-1, N′-(1,1-dioxido-2-phenyl-1,4,2-dithiazolidin-3-ylidene)-N,N-diphenylthiourea] | 0.7 µM | 7 µM | > 70 µM | not obtained | reduction of viral titers (WNV [1]; 1 μg/ml): at least 100 fold; reduction of WNV titers (WNV [1]; repeated tests): 100- to 10,000 fold and 100-10,000 fold; cells expressing high levels of WNV E (immunofluorescence) (WNV E [4]): very few cells; E protein signal (immunoblot) (WNV E [5]): essentially no E protein signal; WNV RNAs per cell (WNV NY99): 27 copies per cell; MTS signal (Vero cells [6]): 136 % of untreated levels; animals succumbed at 21 days ([7]; 10 mg/kg i.p. 4 h before infection and days 2, 4 PI, FIG. 2A): two out of five; survival rate, combined results of two trials ([7]; 10 mg/kg, 21 days PI): 11/15
2 | CC(C)N(C(=S)/N=C1\SC(C)S(=O)(=O)N1C)C(C)C (stereo not shown) [TYT-2, (2,5-dimethyl-1,1-dioxido-1,4,2-dithiazolidin-3-ylidene)bis(1-methylethyl)thiourea] | 30 µM | 30 µM | 90 µM |  | 
3 | CC(C)N(C(=S)/N=C1\SCS(=O)(=O)N1Cc1ccccc1)C(C)C [TYT-3, [1,1-dioxido-2-(phenylmethyl)-1,4,2-dithiazolidin-3-ylidene]bis(1-methylethyl)-thiourea] | 80 µM | 8 µM | > 80 µM | not obtained | 
4 | O=S1(=O)CS/C(=N\C(=S)N(Cc2ccccc2)Cc2ccccc2)N1c1ccccc1 [TYT-4, (1,1-dioxido-2-phenyl-1,4,2-dithiazolidin-3-ylidene)-bis(phenylmethyl)-thiourea] | 22 µM | 65 µM | 65 µM |  | 
5 | NC(=O)c1ncn([C@@H]2O[C@H](CO)[C@@H](O)[C@H]2O)n1 [ribavirin, reference compound] |  |  |  |  | reduction of WNV titers (WNV [1]; 100 μM): 10 fold; protection of cells from WNV challenge (WNV [8]; <100 μM): failed to protect cells
6 | interferon alpha |  |  |  |  | protection of cells from WNV challenge (WNV [8]; 1000 IU/ml): failed to protect cells
